This note sets out measurements from patent publication US11185593B2, “Alkylating agent for alkylating target with driver oncogene mutation” (Chiba Prefecture, priority 2013, dated 2021).

The subject of one assay is LS180 cells. Nature of the assay: Analysis of change in cell cycle (propidium iodide, flow cytometry). The format is cell-based, human. The conditions noted are these: LS180, 50 nM, FIG. 10A; for change in cell cycle: 72 hours; for change in cell cycle, Sub G1 stage (cell death): long-term treatment (14 days). How it is done:
In order to observe a cell cycle, treated cells and untreated cells were each washed with DNase-free PBS twice, and were then immobilized with 70% ethanol (frozen). The immobilized cells were treated with PBS containing 10 µg/mL RNaseA and 50 µg/mL propidium iodide, while they were left in a dark place at room temperature for 30 minutes. Using an FL-2H filter of FACS Calibur flowcytometer (Becton Dickinson, USA), fluorescence intensity was measured. The rate of cell cycle was determined by analyzing the obtained data using Cell Quest software (Becton Dickinson, USA). Regarding the treatment of cells, LS180 was treated with 50 nM KR12 or KR13 (dissolved in 0.125% DMSO) for 72 hours, and as a long-term treatment experiment, a culture experiment was carried out for 14 days. As a control, the cells were cultured in an MEM medium containing 10% FBS and 0.125% DMSO for 14 days.
A general note: Flow cytometry measures light scatter and fluorescence of single cells or particles in a stream.

Assay [1] relates to mutant codon 12 KRAS gene and wild-type KRAS gene in LS180. Nature of the assay: Colony sequence of KRAS transcripts, LS180. The format is cell-based, human. The settings on record: for MUT (number of mutant gene colonies) / WT (number of wild-type gene colonies): LS180, 50 nM, 48 hours, colony sequence, Table 2; for number of mutant gene colonies relative to wild-type gene colonies: LS180, colony sequence method. How it is done: The cells (6.5×10^4) were seeded and were then cultured overnight. Thereafter, the cultured cells were treated with 50 nM KR12 or KR13, and were then cultured for 48 hours. After that, the cultured cells were harvested, and RNA was then extracted. For the extraction, RT-PCT was carried out using RNeasy mini kit (Qiagen, CA). Subsequently, using the extracted RNA as a template, cDNA for reverse transcription was prepared by employing Super Script VILO cDNA Synthesis Kit (Invitrogen, CA). Using the prepared cDNA as a template, PCR was carried out using the primers shown in SEQ ID NO: 7 and SEQ ID NO: 8. After a reaction had been carried out at 94° C. for 5 minutes, a reaction cycle of 94° C.-30 seconds, 55° C.-30 seconds, and 72° C.-30 seconds was repeated 20 times. Finally, an elongation reaction was carried out at 72° C. for 7 minutes. The PCR product was cloned using pGEM-T Easy vector (Promega, WI). Thereafter, Escherichia coli DH5α competent cells (Toyobo, Japan) were transformed with the clone, and the obtained transformant was then cultured at 37° C. overnight in an LB plate containing 50 μg/mL ampicillin, 1 mg of X-gal and 1 mg of isopropyl-β-thiogalactopyranoside. White colonies were identified by colony direct PCR. Regarding the PCR reaction cycle, after a reaction had been carried out at 94° C. for 5 minutes, a reaction cycle of 94° C.-30 seconds, 55° C.-30 seconds, and 72° C.-30 seconds was repeated 30 times. Finally, an elongation reaction was carried out at 72° C. for 7 minutes. The following primer set, namely, an M13-F1 primer and an M13-R1 primer were used for amplification. The sequence of the amplified DNA was decoded using a sequencing primer KRAS-2R, and the KRAS gene mutation site in each colony was then identified.
(§1) KR12, which was considered to specifically alkylate the KRAS mutant codon 12 gene, was administered to a heterozygous colon cancer cell line LS180 having both a mutant codon 12 KRAS gene and a wild-type KRAS gene. Forty-eight hours later, RNA was extracted, and the KRAS gene was then quantitatively amplified. The amplified gene was cloned into a plasmid, using a TA cloning kit, and the obtained plasmid was then introduced into competent cells. Thereafter, by performing blue-white selection using an LB/amp/IPTG/X-Gal plate, white colonies having inserts were picked up, and then, the presence or absence of a colon 12 mutation in each colony was examined by direct sequencing or by a colony PCR method.

Assay [2] shares this test system. Nature of the assay: Colony PCR with allele specific primers, LS180. Format: cell-based, human. The conditions noted are these: for MUT (number of mutant gene colonies) / WT (number of wild-type gene colonies): LS180, 50 nM, 48 hours, colony PCR, Table 3. The procedure: Using primers that specifically amplify the GAT mutant gene of KRAS codon 12 (KRAS-MUT-F and KRAS-MUT-R) and the wild-type genes thereof (KRAS-WT-F and KRAS-WT-R), PCR was carried out directly on the Escherichia coli cells in the above-described white colonies. Whether each colony was a mutant KRAS gene or a wild-type KRAS gene was determined, depending on by which primer set the band of interest was amplified.
as §1

For assay [3], the system named is mutant KRAS genes and wild-type KRAS genes in PANC-1. Nature of the assay: Colony analysis of KRAS transcripts, PANC-1. The format is cell-based. The settings on record: for MUT (number of mutant gene colonies) / WT (number of wild-type gene colonies): PANC-1, Table 4.
The next assay relates to SW480 (KRAS-MUThomo). Nature of the assay: Suppression of tumor growth in nude mice, SW480 transplanted. The format is in vivo. The conditions noted are these: nude mice with SW480 cells; for cancer tumor-inhibitory effect / tumor growth suppression: comparison KR12, KR13, seco CBI, FIG. 15. How it is done: The below-mentioned 3 types of PBS solutions containing each type of cells were subcutaneously transplanted into the femurs of nude mice (i.e., HT29 into 7 mice, LS180 into 7 mice, and SW480 into 6 mice), and thereafter, at a time point in which a tumor adhered to the living body of each mouse and the tumor volume became approximately 100 mm^3, a drug was prepared with a composition of 3.4 mmol KR12 (1.36 mM KR12 dissolved in 2.5 μL of DMSO and 197.5 μL of PBS), or of a DMSO/PBS control (2.5 μL of DMSO and 197.5 μL of PBS). The prepared drug was subjected to sonication for 10 minutes, and 200 μL of the drug was administered to each mouse via the caudal vein thereof. The body weight and the tumor size were measured once three days, and the size of the tumor was measured by the method of 0.52×L×W×D(1/6×π×L×W×D).
SW480 (KRAS-MUThomo): (transplanted in an amount of 5×10^6 cells/100 μl PBS into the subcutis of each mouse; a cell line having a […] KRAS gene codon 12 mutation G12V)
Using, as controls, PIP-indole-seco-CBI (KR13) not recognizing a codon 12 mutation and 8.4 mmol seco CBI (3.36 mM CBI dissolved in 2.5 μL of DMSO and 197.5 μL of PBS), instead of the DMSO/PBS control, an experiment was carried out by the same method as that of the above section 11.

SMILES strings stand for the structures.

Take `CC(=O)Nc1cn(C)c(C(=O)Nc2cn(C)c(C(=O)Nc3cc(C(=O)Nc4cn(C)c(C(=O)NCCC(=O)Nc5cc(C(=O)Nc6cn(C)c(C(=O)NCCCC(=O)Nc7cc(C(=O)Nc8cn(C)c(C(=O)Nc9cc(C(=O)NCCC(=O)Nc%10cc(C(=O)Nc%11ccc%12[nH]c(C(=O)N%13CC(CCl)c%14c%13cc(O)c%13ccccc%14%13)cc%12c%11)n(C)c%10)n(C)c9)n8)n(C)c7)n6)n(C)c5)n4)n(C)c3)n2)n1` (stereo not shown) [KR13]: in the assay on LS180 cells, the “change in cell cycle” value was “the cells at the S phase and the G2M phase were slightly increased”; the “change in cell cycle, Sub G1 stage (cell death)” value is “an increase in the cell at the Sub G1 phase was not significant”. For the same compound, in assay [1], the “MUT (number of mutant gene colonies)” value worked out at 22, the “WT (number of wild-type gene colonies)” value is 15 and the “number of mutant gene colonies relative to wild-type gene colonies” value is on record as “the number of mutant genes was rather increased”. Further, in assay [2], the “MUT (number of mutant gene colonies)” value is recorded as 13 and the “WT (number of wild-type gene colonies)” value was determined as 14. In assay [3], the “MUT (number of mutant gene colonies)” value came to 18 and the “WT (number of wild-type gene colonies)” value was 8. In the assay on SW480 (KRAS-MUThomo), the “cancer tumor-inhibitory effect / tumor growth suppression” value was “impossible”.
With `CC(=O)Nc1cn(C)c(C(=O)Nc2cc(C(=O)NCCC(=O)Nc3cn(C)c(C(=O)Nc4cn(C)c(C(=O)Nc5cc(C(=O)Nc6cn(C)c(C(=O)NCCCC(=O)Nc7cc(C(=O)Nc8cn(C)c(C(=O)NCCC(=O)Nc9cc(C(=O)Nc%10cc(C(=O)Nc%11ccc%12[nH]c(C(=O)N%13CC(CCl)c%14c%13cc(O)c%13ccccc%14%13)cc%12c%11)n(C)c%10)n(C)c9)n8)n(C)c7)n6)n(C)c5)n4)n3)n(C)c2)n1` (stereo not shown) [KR12], in the assay with LS180 cells, the “change in cell cycle” value is “the LS180 cells at the S stage were increased” and the “change in cell cycle, Sub G1 stage (cell death)” value was “the cells at the Sub G1 stage were significantly increased”. Besides, in assay [1], the “MUT (number of mutant gene colonies)” value is reported as 14, the “WT (number of wild-type gene colonies)” value stood at 29 and the “number of mutant gene colonies relative to wild-type gene colonies” value is “the number of mutant gene colonies was a half of the number of wild-type gene colonies”. In assay [2], the “MUT (number of mutant gene colonies)” value came out at 11 and the “WT (number of wild-type gene colonies)” value is recorded as 27. The “expression levels of mutant cancer genes” value in assay [2] (LS180, colony PCR) is reported as “the expression levels of mutant cancer genes were decreased”. Also, in assay [3], the “MUT (number of mutant gene colonies)” value came out at 24 and the “WT (number of wild-type gene colonies)” value is 21. For the same compound, in assay [3] (PANC-1, control group mutant 3-fold higher than wild-type), the “expression levels of the mutant KRAS genes relative to wild-type KRAS genes” value is “decreased to the same levels of the wild-type KRAS genes”. For the same compound, the tumor size entry with SW480 (KRAS-MUThomo) (3.4 mmol KR12 via the caudal vein, FIG. 14C) was “significantly reduced”. Moreover, the “size of the tumor” value in the assay with SW480 (KRAS-MUThomo) (2 months after the administration) is listed as “significantly reduced”. In addition, in the assay on SW480 (KRAS-MUThomo) (3 months after the administration), the “state of the tumor” value is “an extremely small and hard induration”. In addition, the “cancer tumor-inhibitory effect / tumor growth suppression” value in the assay with SW480 (KRAS-MUThomo) is reported as “significantly higher than in the case of administration of KR13”.
